Data taken from US6706663B2, “Herbicidal 3-heterocyclic substituted benzisothiazole and benzisoxazole compounds” (Wyeth, priority 2000, dated 2004).

How the values were obtained:
[1] = tested on: GALAP (Galium aparine); assay: Postemergence herbicidal evaluation; assay type: in vivo
How it was run: (§1)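 Seedlings grown for about two weeks were sprayed postemergence and then kept under standard greenhouse care. Injury was rated visually 4–5 weeks after treatment on a 0–9 scale against untreated controls, and ratings from repeat tests were averaged.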

[2] = tested on: SETVI (Setaria viridis); assay: Postemergence herbicidal evaluation; assay type: in vivo, (L.) Beau
How it was run: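 First, seedlings are raised in flats for about two weeks. Next, compound dispersed in 50/50 acetone/water with 0.5% TWEEN 20 is sprayed at 40 psi to deliver about 0.0040–1.000 kg/ha. Plants are then maintained in the greenhouse and rated 0-9 after four to five weeks.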

[3] = tested on: GLXMAW (Soybean, Williams); assay: Postemergence herbicidal evaluation; assay type: in vivo, Glycine max, (L.) Merr. cv Williams
How it was run: as §1

[4] = tested on: GALAP (Galium aparine); assay: Preemergence herbicidal evaluation; assay type: in vivo; conditions: preemergence, rated 4-5 weeks after treatment
How it was run: (§2)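 Greenhouse preemergence test: freshly planted cups were sprayed once with an aqueous acetone solution of compound. Injury was judged visually on a 0–9 scale relative to a control, four to five weeks later.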

[5] = tested on: IPOHE (Ipomoea hederacea); assay: Preemergence herbicidal evaluation; assay type: in vivo, (L.) Jacq.; conditions: preemergence, rated 4-5 weeks after treatment
[6] = tested on: ECHCG (Echinochloa crus-galli); assay: Preemergence herbicidal evaluation; assay type: in vivo, (L.) Beau; conditions: preemergence, rated 4-5 weeks after treatment
How it was run: as §2

[7] = tested on: SETVI (Setaria viridis); assay: Preemergence herbicidal evaluation; assay type: in vivo, (L.) Beau; conditions: preemergence, rated 4-5 weeks after treatment
How it was run: as §2

[8] = tested on: GLXMAW (Soybean, Williams); assay: Preemergence herbicidal evaluation; assay type: in vivo, Glycine max, (L.) Merr. cv Williams; conditions: preemergence, rated 4-5 weeks after treatment
[9] = tested on: ZEAMX (Corn, Field); assay: Preemergence herbicidal evaluation; assay type: in vivo, Zea mays, L.; conditions: preemergence, rated 4-5 weeks after treatment
[10] = tested on: CYPIR (Cyperus iria); assay: Flooded paddy, preemergence weed control; assay type: in vivo; conditions: rated 3-4 weeks after treatment, 0-9 rating scale
How it was run: (§3)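 Seeds or propagating organs were sown in the top 0.5 cm of silt loam soil, flooded, and the water kept 1.5 to 3 cm above the soil surface throughout. Plants were grown in the greenhouse and rated visually on a 0-9 scale against a control.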

[11] = tested on: MOOVA (Monochoria vaginalis); assay: Flooded paddy, preemergence weed control; assay type: in vivo, Presl.; conditions: rated 3-4 weeks after treatment, 0-9 rating scale
How it was run: as §3

[12] = tested on: ECHORC (Echinochloa oryzoides); assay: Flooded paddy, postemergence weed control; assay type: in vivo, Echinochloa oryzoides (Ard.) Fritsch.; conditions: postemergence weeds, rated 3-4 weeks after treatment
How it was run: (§4)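 Visual 0-9 score (stand, vigor, malformation, size, chlorosis, overall appearance vs untreated control) taken 3-4 wk post-treatment. Weeds 3-5 cm, rice 1.5-2.5 leaf stage, flood 1.5-3 cm; compound into flood water, ~0.0320-0.2500 kg/ha, aqueous/acetone 50/50 v/v.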

[13] = tested on: CYPIR (Cyperus iria); assay: Flooded paddy, postemergence weed control; assay type: in vivo; conditions: postemergence weeds, rated 3-4 weeks after treatment
How it was run: as §4

[14] = tested on: CYPSE (Cyperus serotinus); assay: Flooded paddy, postemergence weed control; assay type: in vivo, Rottb.; conditions: postemergence weeds, rated 3-4 weeks after treatment
How it was run: as §4

[15] = tested on: MOOVA (Monochoria vaginalis); assay: Flooded paddy, postemergence weed control; assay type: in vivo, Presl.; conditions: postemergence weeds, rated 3-4 weeks after treatment
How it was run: as §4

[16] = tested on: SAGPY (Sagittaria pygmaea); assay: Flooded paddy, postemergence weed control; assay type: in vivo, L.; conditions: postemergence weeds, rated 3-4 weeks after treatment
How it was run: as §4

[17] = tested on: ORYSAT (Rice, Tebonnet); assay: Flooded paddy, post-transplant and postemergence rice tolerance; assay type: in vivo, Oryza sativa, (L.) Tebonnet; conditions: post-transplant rice, rated 3-4 weeks after treatment
How it was run: as §4

## COC(=O)COc1ccsc1-c1nsc2ccc(-n3c(=O)cc(C(F)(F)F)n(C)c3=O)cc12 [Compound 22, Methyl [(2-[5-[3,6-dihydro-3-methyl-2,6-dioxo-4-(trifluoromethyl)-1(2H)-pyrimidinyl]-1,2-benzisothiazol-3-yl]-3-thienyl]oxy]acetate]
[1]; rate 0.0320 kg/ha
  Postemergence herbicidal rating, GALAP: 0.0
[1]; rate 0.0620 kg/ha
  Postemergence herbicidal rating, GALAP: 0.0
[1]; rate 0.1250 kg/ha
  Postemergence herbicidal rating, GALAP: 1.0
[2]; rate 0.0320 kg/ha
  Postemergence herbicidal rating, SETVI: 3.0
[2]; rate 0.0620 kg/ha
  Postemergence herbicidal rating, SETVI: 2.0
[2]; rate 0.1250 kg/ha
  Postemergence herbicidal rating, SETVI: 9.0
[3]; rate 0.0320 kg/ha
  Postemergence herbicidal rating, GLXMAW: 5.5
[3]; rate 0.0620 kg/ha
  Postemergence herbicidal rating, GLXMAW: 5.5
[3]; rate 0.1250 kg/ha
  Postemergence herbicidal rating, GLXMAW: 6.5
[4]; Rate 0.0620 kg/ha
  GALAP preemergence herbicidal rating: 0.0
[4]; Rate 0.1250 kg/ha
  GALAP preemergence herbicidal rating: 0.0
[4]; Rate 0.2500 kg/ha
  GALAP preemergence herbicidal rating: 1.0
[5]; Rate 0.0620 kg/ha
  IPOHE preemergence herbicidal rating: 0.0
[5]; Rate 0.1250 kg/ha
  IPOHE preemergence herbicidal rating: 0.0
[5]; Rate 0.2500 kg/ha
  IPOHE preemergence herbicidal rating: 0.0
[6]; Rate 0.0620 kg/ha
  ECHCG preemergence herbicidal rating: 0.0
[6]; Rate 0.1250 kg/ha
  ECHCG preemergence herbicidal rating: 0.0
[6]; Rate 0.2500 kg/ha
  ECHCG preemergence herbicidal rating: 1.0
[7]; Rate 0.0620 kg/ha
  SETVI preemergence herbicidal rating: 0.0
[7]; Rate 0.1250 kg/ha
  SETVI preemergence herbicidal rating: 1.0
[7]; Rate 0.2500 kg/ha
  SETVI preemergence herbicidal rating: 3.0
[8]; Rate 0.0620 kg/ha
  GLXMAW preemergence herbicidal rating: 0.0
[8]; Rate 0.1250 kg/ha
  GLXMAW preemergence herbicidal rating: 0.0
[8]; Rate 0.2500 kg/ha
  GLXMAW preemergence herbicidal rating: 0.0
[9]; Rate 0.0620 kg/ha
  ZEAMX preemergence herbicidal rating: 0.0
[9]; Rate 0.1250 kg/ha
  ZEAMX preemergence herbicidal rating: 0.0
[9]; Rate 0.2500 kg/ha
  ZEAMX preemergence herbicidal rating: 1.0
[10]; rate 0.0080 kg/ha
  herbicidal rating, CYPIR: 0.0
[10]; rate 0.0320 kg/ha
  herbicidal rating, CYPIR: 2.5
[10]; rate 0.1250 kg/ha
  herbicidal rating, CYPIR: 3.0
[11]; rate 0.0080 kg/ha
  herbicidal rating, MOOVA: 0.0
[11]; rate 0.0320 kg/ha
  herbicidal rating, MOOVA: 4.5
[11]; rate 0.1250 kg/ha
  herbicidal rating, MOOVA: 4.5
[12]; 0.0320 kg/ha into flood water
  herbicide rating (0-9) ECHORC: 0.0
[12]; 0.0620 kg/ha into flood water
  herbicide rating (0-9) ECHORC: 0.0
[12]; 0.1250 kg/ha into flood water
  herbicide rating (0-9) ECHORC: 0.0
[13]; 0.0320 kg/ha into flood water
  herbicide rating (0-9) CYPIR: 0.0
[13]; 0.0620 kg/ha into flood water
  herbicide rating (0-9) CYPIR: 0.0
[13]; 0.1250 kg/ha into flood water
  herbicide rating (0-9) CYPIR: 0.0
[14]; 0.0320 kg/ha into flood water
  herbicide rating (0-9) CYPSE: 0.0
[14]; 0.0620 kg/ha into flood water
  herbicide rating (0-9) CYPSE: 0.0
[14]; 0.1250 kg/ha into flood water
  herbicide rating (0-9) CYPSE: 0.0
[15]; 0.0320 kg/ha into flood water
  herbicide rating (0-9) MOOVA: 0.0
[15]; 0.0620 kg/ha into flood water
  herbicide rating (0-9) MOOVA: 0.0
[15]; 0.1250 kg/ha into flood water
  herbicide rating (0-9) MOOVA: 0.0
[16]; 0.0320 kg/ha into flood water
  herbicide rating (0-9) SAGPY: 0.0
[16]; 0.0620 kg/ha into flood water
  herbicide rating (0-9) SAGPY: 0.0
[16]; 0.1250 kg/ha into flood water
  herbicide rating (0-9) SAGPY: 0.0
[17]; 0.0320 kg/ha into flood water
  herbicide rating (0-9) ORYSAT (rice tolerance): 0.0
[17]; 0.0620 kg/ha into flood water
  herbicide rating (0-9) ORYSAT (rice tolerance): 0.0
[17]; 0.1250 kg/ha into flood water
  herbicide rating (0-9) ORYSAT (rice tolerance): 0.0
